#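 Where inhibition never reached the appropriate level, the endpoint shown equals the highest concentration tested. Otherwise, values were interpolated linearly from a five-concentration, 48-hour dose response in 96-well plates. GI50: concentration for 50% inhibition of growth. TGI marks complete inhibition of growth.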
# How the values were obtained:
# Assay in all cases: NCI-60 cell line screen, 48 h
# [1] = tested on: HCC-2998 colon
# [2] = tested on: HCT-116 colon
# [3] = tested on: HOP-92 NSCLC
# [4] = tested on: 786-0 renal
# [5] = tested on: NCI-H23 lung
# [6] = tested on: ACHN renal
# [7] = tested on: MOLT-4 leukemia
# [8] = tested on: RXF 393 renal
# [9] = tested on: U251 CNS
# [10] = tested on: A549 NSCLC
# [11] = tested on: PC-3 prostate
# [12] = tested on: HL-60(TB) leukemia
# [13] = tested on: NCI-H226 lung
# [14] = tested on: SF-539 CNS
# [15] = tested on: SW-620 colon
# [16] = tested on: DU-145 prostate
# [17] = tested on: COLO 205 colon
# [18] = tested on: HCT-15 colon
# [19] = tested on: TK-10 renal
# [20] = tested on: SNB-19 CNS
# [21] = tested on: SR leukemia
# [22] = tested on: SK-MEL-5 melanoma
# [23] = tested on: CAKI-1 renal
# [24] = tested on: K-562 leukemia
# [25] = tested on: OVCAR-3 ovarian
# [26] = tested on: SNB-75 CNS
# [27] = tested on: RPMI-8226 leukemia
# [28] = tested on: UACC-62 melanoma
# [29] = tested on: SK-MEL-28 melanoma
# [30] = tested on: OVCAR-4 ovarian
# [31] = tested on: SK-OV-3 ovarian
# [32] = tested on: UACC-257 melanoma
# [33] = tested on: IGROV1 ovarian
# [34] = tested on: A498 renal
# [35] = tested on: MDA-MB-435
# [36] = tested on: HT29 colon
# [37] = tested on: NCI-H460 lung
# [38] = tested on: NCI/ADR-RES ovarian
# [39] = tested on: CCRF-CEM leukemia
# [40] = tested on: MCF7 breast
# [41] = tested on: HS 578T breast
# [42] = tested on: OVCAR-5 ovarian
# [43] = tested on: OVCAR-8 ovarian
# [44] = tested on: UO-31 renal
# [45] = tested on: T-47D breast
# [46] = tested on: M14 melanoma
structure (smiles),measurement,setting,value
CCOP(=O)(OCC)OC[C@]12CCC(C)(C)C[C@H]1C1=CC[C@@H]3[C@@]4(C)C/C(=C\c5cccnc5)[C@H](OP(=O)(OCC)OCC)C(C)(C)[C@@H]4CC[C@@]3(C)[C@]1(C)CC2,GI50,[1],1.59 µM
same,TGI,[1],3.03 µM
same,GI50,[2],1.25 µM
same,TGI,[2],2.58 µM
same,GI50,[3],1.22 µM
same,TGI,[3],2.9 µM
same,GI50,[4],1.86 µM
same,TGI,[4],3.89 µM
same,GI50,[5],1.61 µM
same,TGI,[5],3.29 µM
same,GI50,[6],2.3 µM
same,TGI,[6],7.14 µM
same,GI50,[7],0.715 µM
same,TGI,[7],2.42 µM
same,GI50,[8],1.19 µM
same,TGI,[8],2.49 µM
same,GI50,[9],1.61 µM
same,TGI,[9],3.2 µM
same,GI50,[10],2 µM
same,TGI,[10],5.59 µM
same,GI50,[11],0.727 µM
same,TGI,[11],2.77 µM
same,GI50,[12],0.581 µM
same,TGI,[12],2.3 µM
same,GI50,[13],1.44 µM
same,TGI,[13],3.13 µM
same,GI50,[14],1.73 µM
same,TGI,[14],3.2 µM
same,GI50,[15],1.79 µM
same,TGI,[15],3.61 µM
same,GI50,[16],1.75 µM
same,TGI,[16],3.3 µM
same,GI50,[17],1.57 µM
same,TGI,[17],3.32 µM
same,GI50,[18],1.56 µM
same,TGI,[18],3.43 µM
same,GI50,[19],2.68 µM
same,TGI,[19],6.32 µM
same,GI50,[20],1.66 µM
same,TGI,[20],3.14 µM
same,GI50,[21],1.02 µM
same,TGI,[21],2.78 µM
same,GI50,[22],1.42 µM
same,TGI,[22],2.73 µM
same,GI50,[23],1.09 µM
same,TGI,[23],2.65 µM
same,GI50,[24],1.18 µM
same,TGI,[24],3.53 µM
same,GI50,[25],1.68 µM
same,TGI,[25],3.39 µM
same,GI50,[26],1.6 µM
same,TGI,[26],3.91 µM
same,GI50,[27],0.939 µM
same,TGI,[27],3.33 µM
same,GI50,[28],1.28 µM
same,TGI,[28],2.88 µM
same,GI50,[29],1.71 µM
same,TGI,[29],3.27 µM
same,GI50,[30],1.7 µM
same,TGI,[30],4.37 µM
same,GI50,[31],2.1 µM
same,TGI,[31],5.28 µM
same,GI50,[32],1.64 µM
same,TGI,[32],4.06 µM
same,GI50,[33],2.21 µM
same,TGI,[33],5.61 µM
same,GI50,[34],1.64 µM
same,TGI,[34],4.44 µM
same,GI50,[35],1.6 µM
same,TGI,[35],3.23 µM
same,GI50,[36],1.52 µM
same,TGI,[36],3.16 µM
same,GI50,[37],1.78 µM
same,TGI,[37],3.55 µM
same,GI50,[38],2.25 µM
same,TGI,[38],6.05 µM
same,GI50,[39],1.77 µM
same,TGI,[39],4 µM
same,GI50,[40],1.37 µM
same,TGI,[40],3.04 µM
same,GI50,[41],2.06 µM
same,TGI,[41],5.38 µM
same,GI50,[42],1.79 µM
same,TGI,[42],3.34 µM
same,GI50,[43],2.29 µM
same,TGI,[43],6.52 µM
same,GI50,[44],1.92 µM
same,TGI,[44],6.04 µM
same,GI50,[45],1.58 µM
same,TGI,[45],8.35 µM
same,GI50,[46],1.8 µM
same,TGI,[46],3.7 µM
